From ChEMBL document CHEMBL2203126, “Diazine indole acetic acids as potent, selective, and orally bioavailable antagonists of chemoattractant receptor homologous molecule expressed on Th2 cells (CRTH2) for the treatment of allergic inflammatory diseases” (J Med Chem, 2012)
In brackets after ≈: the same amount, converted by molar mass.

How the values were obtained:
[1] = target: T1, Prostaglandin D2 receptor 2 (Homo sapiens, UniProt Q9Y5Y4); experiment: biochemical
T1 sequence (Q9Y5Y4 whole entry): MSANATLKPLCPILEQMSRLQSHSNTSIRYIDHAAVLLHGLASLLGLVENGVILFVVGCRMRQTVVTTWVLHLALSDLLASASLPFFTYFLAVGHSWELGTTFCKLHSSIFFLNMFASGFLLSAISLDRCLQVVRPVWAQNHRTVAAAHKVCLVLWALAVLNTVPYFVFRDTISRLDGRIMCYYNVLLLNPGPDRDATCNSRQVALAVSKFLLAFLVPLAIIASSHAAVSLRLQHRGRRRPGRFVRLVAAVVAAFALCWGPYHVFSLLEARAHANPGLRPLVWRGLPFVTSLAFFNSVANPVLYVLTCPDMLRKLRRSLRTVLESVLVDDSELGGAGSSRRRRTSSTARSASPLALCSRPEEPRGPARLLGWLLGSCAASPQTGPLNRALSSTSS
Description: (§1) Displacement of [3H]PGD2 from recombinant human CRTH2 receptor expressed in CHO-K1 cells after 30 min by FRET method

[2] = Dissociation constant, pKa of the compound; assay type: physicochemical
[3] = in vitro; conditions: human, Caco-2, pH 6.2
Description: Apparent permeability in human Caco2 cells at pH 6.2/7.4

[4] = Volume of distribution at steady state in mouse at 2 mg/kg, iv; assay type: ADME, organism-based; design: dose 2 mg/kg, route intravenous; conditions: in vivo, read-out: Vdss
[5] = Half life in mouse at 2 mg/kg, iv; assay type: ADME, organism-based; design: dose 2 mg/kg, route intravenous; conditions: in vivo
[6] = Clearance in mouse plasma at 2 mg/kg, iv; assay type: ADME, organism-based; design: dose 2 mg/kg, route intravenous
[7] = in vitro; conditions: human, plasma
Description: Plasma protein binding in human

[8] = Cmax in mouse at 10 mg/kg, po; assay type: ADME, organism-based; design: dose 10 mg/kg, route oral; conditions: in vivo
[9] = physchem; conditions: buffer, pH 6.6
Description: Aqueous solubility of the compound at pH 6.6

[10] = test system: Eosinophil; experiment: cells; conditions: Homo sapiens, Blood, 10 min
Description: Inhibition of eosinophil shape change in human whole blood after 10 mins by flow cytometric assay

[11] = Oral bioavailability in mouse at 10 mg/kg; assay type: ADME, organism-based; conditions: in vivo
[12] = Clearance in mouse; assay type: ADME, organism-based; conditions: in vivo
[13] = Oral bioavailability in mouse; assay type: ADME, organism-based; conditions: in vivo
[14] = Effective permeability across human Caco2 cells; assay type: ADME, cell-based; conditions: Caco-2, read-out: Peff
[15] = Half life in mouse liver microsomes; assay type: ADME, Microsome
[16] = target: T1, Prostaglandin D2 receptor 2; conditions: cho-k1
Description: as §1

[17] = test system: Liver microsomes; experiment: Metabolic stability in human liver microsomes; assay type: ADME, Microsome
[18] = in vivo; conditions: rat, iv, 2 mg/kg
Description: Volume of distribution at steady state in rat at 2 mg/kg, iv

[19] = organism: Mus musculus; experiment: animal or person; conditions: Ear, po, read-out: INH
[20] = in vivo; conditions: rat, po, 10 mg/kg
[21] = in vivo; conditions: rat, po, 10 mg/kg; remark: listed apart in the source
[22] = in vivo; conditions: rat, plasma, iv, 2 mg/kg
Description: Clearance in rat plasma at 2 mg/kg, iv

[23] = in vivo; conditions: rat, iv, 2 mg/kg; remark: listed apart in the source
Description: Half life in rat at 2 mg/kg, iv

Structure (SMILES)	IC50 [1]	pKa [2]	other results
Cc1c(-c2nn(Cc3ccccc3)c(=O)c3ccccc23)c2ccccc2n1CC(N)=O	> 1 µM		
Cc1c(-c2nn(Cc3ccccc3)c(=O)c3ccccc23)c2ccccc2n1CC(=O)NS(C)(=O)=O	> 1 µM		
Cc1c(Cc2ccc(=O)n(Cc3ccccc3)n2)c2ccccc2n1CC(=O)O			fraction unbound [7]: < 0.02; IC50 [10]: 0.155 µM
Cc1c(-c2ccc(=O)n(Cc3ccc(F)cc3)n2)c2cc(F)ccc2n1CC(=O)O			IC50 [16]: 0.02 µM; Stability [17]: Stable; clearance [12]: 0.414 L/h/kg; bioavailability [13]: 11%; Papp [14]: 3 nm/s; half-life [15]: > 0.5 h
Cc1c(Cc2ccc(=O)n(Cc3ccc(F)cc3F)n2)c2cc(F)cc(F)c2n1CC(=O)O			fraction unbound [7]: < 0.02; IC50 [10]: 0.18 µM
Cc1c(Cc2ccc(=O)n(Cc3ccc(C(F)(F)F)cc3)n2)c2cc(F)ccc2n1CC(=O)O			fraction unbound [7]: < 0.02; IC50 [10]: 0.055 µM
Cc1c(Cc2ccc(=O)n(Cc3ccncc3F)n2)c2cc(F)ccc2n1CC(=O)O			fraction unbound [7]: < 0.02
Cc1c(-c2ccc(=O)n(Cc3ccccc3)n2)c2cc(Cl)cc(Cl)c2n1CC(=O)O	1.69 µM	3.88	
Cc1c(Cc2ccc(=O)n(Cc3ccc(C(O)(C(F)(F)F)C(F)(F)F)cc3)n2)c2cc(F)ccc2n1CC(=O)O			fraction unbound [7]: < 0.02; IC50 [10]: 0.057 µM
Cc1c(-c2nn(Cc3ccccc3)c(=O)c3ccccc23)c2ccccc2n1CCO	> 1 µM		
Cc1c(-c2ccc(=O)n(Cc3ccccc3)n2)c2cc(S(C)(=O)=O)cc(F)c2n1CC(=O)O	0.934 µM	3.83	
Cc1c(-c2nn(Cc3ccccc3)c(=O)c3ccccc23)c2ccccc2n1CC(=O)N1CCCC1	> 1 µM		
Cc1c(-c2ccc(=O)n(Cc3ccccc3)n2)c2cc(F)cc(S(C)(=O)=O)c2n1CC(=O)O		3.83	
Cc1c(-c2nn(Cc3ccccc3)c(=O)c3ccccc23)c2ccccc2n1CC(=O)N(C)C	> 1 µM		
Cc1c(-c2ccc(=O)n(Cc3ccccc3)n2)c2cccc(Br)c2n1CC(=O)O		3.98	
Cc1c(-c2nn(Cc3ccccc3)c(=O)c3ccccc23)c2ccccc2n1C(C)C(=O)O (centres undefined)	> 1 µM		
Cc1c(-c2nn(Cc3ccccc3)c(=O)c3ccccc23)c2ccccc2n1CCC(=O)O	> 1 µM		
Cc1c(Cc2ccc(=O)n(Cc3ccc(F)cc3F)n2)c2ccccc2n1CC(=O)O			fraction unbound [7]: < 0.02

Further lines, with some results ahead:

IC50 [1]	pKa [2]	Structure (SMILES)	other results
0.076 µM	3.85	Cc1c(-c2ccc(=O)n(Cc3ccccc3)n2)c2cc(F)cc(F)c2n1CC(=O)O	
0.023 µM	4.02	Cc1c(-c2ccc(=O)n(Cc3ccccc3)n2)c2cc(F)ccc2n1CC(=O)O	Papp [3]: 5 nm/s
0.01 µM		Cc1c(-c2ccc(=O)n(Cc3ccc(F)cc3F)n2)c2cc(F)ccc2n1CC(=O)O	Papp [3]: 21 nm/s
0.134 µM	4.15	Cc1c(-c2ccc(=O)n(Cc3ccccc3)n2)c2ccccc2n1CC(=O)O	
0.016 µM	4.03	Cc1c(-c2ccc(=O)n(Cc3ccccc3)n2)c2cc(Br)ccc2n1CC(=O)O	
0.245 µM	3.86	Cc1c(-c2ccc(=O)n(Cc3ccccc3)n2)c2cc(F)cc(Cl)c2n1CC(=O)O	
0.004 µM		Cc1c(CC2=NN(Cc3ccc(F)cc3F)C(=O)CC2)c2cc(F)ccc2n1CC(=O)O	Vd [4]: 1.12 L/kg; half-life [5]: 4 h; clearance [6]: 0.54 L/h/kg; fraction unbound [7]: < 0.02; Cmax [8]: 1.89 µg/mL; solubility [9]: 0.954 mg/mL (≈ 2150 µM); IC50 [10]: 0.008 µM; bioavailability [11]: 41%
0.029 µM		Cc1c(Cc2nn(Cc3ccccc3)c(=O)c3ccccc23)c2cc(Cl)ccc2n1CC(=O)O	
0.012 µM		Cc1c(Cc2ccc(=O)n(Cc3ccncc3)n2)c2cc(F)ccc2n1CC(=O)O	fraction unbound [7]: < 0.02; IC50 [10]: 0.022 µM
0.011 µM		Cc1c(-c2nn(Cc3ccccc3)c(=O)c3ccccc23)c2cc(F)ccc2n1CC(=O)O	
0.009 µM		Cc1c(Cc2ccc(=O)n(Cc3ccccc3)n2)c2cc(F)ccc2n1CC(=O)O	Papp [3]: 43 nm/s
0.002 µM		Cc1c(-c2nn(CCOc3ccc(Cl)cc3)c(=O)c3ccccc23)c2cc(Cl)ccc2n1CC(=O)O	clearance [12]: > 5.4 L/h/kg; bioavailability [13]: < 1%; Papp [14]: 2 nm/s; half-life [15]: 0.183 h
0.015 µM		Cc1c(Cc2ccc(=O)n(Cc3ccccc3)n2)c2cc(Cl)ccc2n1CC(=O)O	fraction unbound [7]: < 0.02; IC50 [10]: 0.015 µM
0.109 µM		Cc1c(C2=NN(Cc3ccccc3)C(=O)C3CCCCC23)c2cc(F)ccc2n1CC(=O)O (centres undefined)	
0.034 µM	4.16	Cc1ccc2c(c1)c(-c1ccc(=O)n(Cc3ccccc3)n1)c(C)n2CC(=O)O	
0.135 µM	4	Cc1c(-c2ccc(=O)n(Cc3ccccc3)n2)c2cc(S(C)(=O)=O)ccc2n1CC(=O)O	
0.016 µM		Cc1c(CC2=NN(Cc3ccccc3)C(=O)CC2)c2cc(F)ccc2n1CC(=O)O	Vd [18]: 1.7 L/kg; inhibition in vivo at 3 mg/kg [19]: 34%; bioavailability [20]: 28%; Cmax [21]: 0.484 µg/mL; fraction unbound [7]: < 0.02; clearance [22]: 0.78 L/h/kg; IC50 [10]: 0.004 µM; half-life [23]: 4.3 h
0.09 µM	3.86	Cc1c(-c2ccc(=O)n(Cc3ccccc3)n2)c2cc(Cl)cc(F)c2n1CC(=O)O	
0.104 µM	4.07	COc1ccc2c(c1)c(-c1ccc(=O)n(Cc3ccccc3)n1)c(C)n2CC(=O)O	
0.028 µM	4.03	Cc1c(-c2ccc(=O)n(Cc3ccccc3)n2)c2cc(Cl)ccc2n1CC(=O)O	
0.011 µM		Cc1c(-c2nn(Cc3ccccc3)c(=O)c3ccccc23)c2cc(Cl)ccc2n1CC(=O)O	
0.0008 µM		Cc1c(Cc2ccc(=O)n(Cc3cc(F)c(F)cc3F)n2)c2cc(F)ccc2n1CC(=O)O	fraction unbound [7]: < 0.02; IC50 [10]: 0.01 µM
0.016 µM		Cc1c(-c2nn(Cc3ccccc3)c(=O)c3ccccc23)c2ccccc2n1CC(=O)O	
0.005 µM		Cc1c(Cc2ccc(=O)n(Cc3ccc(C(C)(C)O)cc3)n2)c2cc(F)ccc2n1CC(=O)O	fraction unbound [7]: < 0.02; IC50 [10]: 0.013 µM
